Test results as given in US20060123501A1, “Method for treating inflammatory disorders” (priority 2004, published 2006).
Where two headings read alike, the source gives them in different places.

Columns and labels:
[1] = system: peritoneal-derived macrophages; assay: Fas-induced death of peritoneal macrophages with or without LPS pre-treatment (TUNEL); format: cell-based, mouse; conditions: LPS 10 μg/ml, 4 h, α-Fas antibody 20 μg/ml
Experimental: Peritoneal-derived macrophages from cIAP2^−/− (lower panels) and cIAP2^+/+ mice (upper panels) were either pre-treated with LPS for 4 h or not pre-treated prior to exposure to α-Fas antibody and then TUNEL stained to assess cell viability (A). Percentages of viable cells (n=5, average of triplicate wells per mouse, P values were <0.01) are shown within each TUNEL stained panel along with the standard deviation. cIAP2^−/−-derived (open shapes) and cIAP2^+/+-derived (solid shapes) T cells were pre-incubated with a range of IL-7 concentrations and then exposed to dexamethasone and T cell survival was monitored over a 12 h period (B) (n=3, average of triplicate wells per mouse, results are mean±s.d., P values at the 12 h point were <0.05). Peritoneal-derived cell numbers are shown for macrophages of cIAP2^−/− mice and littermate control cIAP2^+/+ mice injected i.p. with LPS(C). […]
Confluent primary cultures of peritoneal-derived macrophages were either pre-treated with LPS (10 μg/ml, 4 h) or not pre-treated prior to exposure to α-Fas antibody (20 μg/ml, clone Jo2) and then TUNEL stained (Roche) to assess cell viability. Primary cultures of spleen derived T cells were pre-incubated with a range of IL-7 concentrations (0, 5, and 10 ng/ml) and then exposed to dexamethasone (100 nM) and T cell survival was monitored over a 12 h period.

splenic B cells = assay: Proliferation of splenic B cells cultured with LPS; format: cell-based, mouse; conditions: cIAP2−/− splenic B cells; LPS 0.1 to 100 μg/ml
Experimental: Spleen- and peritoneal-derived macrophage cell count numbers are shown (A) for cIAP2^−/−, cIAP2^+/− and cIAP2^+/+ mice (n=10). Both cIAP2^−/− and littermate control-derived macrophages stained for the LPS binding surface receptor CD14 (B). The proliferation of B cells for cIAP2^−/− mice and littermate controls of cIAP2^+/+ after culturing with the indicated range of LPS doses (n=6) (C). Cultured macrophages from cIAP2^−/− or littermate control cIAP2^+/+ mice were exposed to LPS for 10 h and subsequently IL-1β (D) or TNF-α (E) levels were measured by ELISA (n=6). Additionally, macrophages were exposed to the indicated range of LPS doses for 24 h and IL-1β (F) or TNF-α (G) levels were determined (n=6). Results are mean±s.d. in triplicate per mouse, P<0.01
This dysfunction may be correlated to a reduced initial number of macrophages, to a block in the LPS-induced signaling pathway, or to an increased apoptotic susceptibility of the cIAP2^−/− macrophages. […] The cIAP2^−/− mice and wild-type macrophages also stained similarly for the LPS-binding receptor, CD14 (FIG. 4B).

[2] = system: xiap, ciap1 and ciap2 mRNA; assay: iap mRNA levels of LPS-treated peritoneal macrophages (quantitative RT-PCR); format: cell-based, mouse
Experimental: The iap mRNA levels of LPS-treated peritoneal macrophages derived from wild type C57Bl/6 mice relative to untreated controls were assayed. (A) xiap, ciap1, and ciap2 message levels of macrophages exposed to a range of LPS doses relative to untreated controls. (B) ciap2 mRNA message of macrophages exposed to LPS was assayed over 24 h. Results are mean±s.d. (n=5, average of triplicate wells per mouse, P<0.05).
LPS-induced activation of macrophages causes the upregulation of a multitude of genes, including the production/release of inflammatory mediators, the upregulation of cell surface receptors and of cell survival proteins. […] Therefore, the iap mRNA levels of LPS-treated macrophages, derived from the peritoneal cavity, were assayed relative to untreated controls. Peritoneal macrophages were cultured at 10^5 cell/well (96 well, flat bottom plate) and exposed to varying concentrations of LPS for 18 hours. […] In contrast, ciap2 levels increased dramatically, up to 30 fold above untreated controls (P<0.01 for all LPS doses) (FIG. 2A). The innate immune system provides protection within the first minutes to hours after a pathogenic challenge.
mRNA was extracted from mouse embryonic fibroblasts or peritoneal macrophages using Qiagen Rneasy 96 wells extraction kit (Qiagen, Mississauga, ON, Canada) and run on a TaqMan® instrument (Perkin-Elmer, Foster City, Calif.) using specific DNA probes for murine xiap, ciap1 and 2 and the TaqMan® EZ RT-PCR kit (Qiagen, Mississauga, ON, Canada).

[3] = system: cIAP2−/− mice and littermate controls; conditions: for LD100: i.p.
Experimental: Mice were injected IP with a range of indicated LPS doses (n=15).
Schoemaker et al. proposed an important role of cIAP2 in LPS-induced death of liver cells sensitized to endotoxic shock by D-galactosamine (DGLN) (22). […] Thus to investigate the role of cIAP2 in an innate immune response, the cIAP2^−/− mice were treated with LPS.
Adult 4-6 week old mice (n=6 to 10) were injected intraperitoneally (i.p.) with a range of LPS doses (10 to 200 mg LPSD/kg) from E. coli (Sigma) in a total volume of 0.2 ml nonpyrogenic saline.

[4] = wild type peritoneal macrophages, LPS 0.1 ng/ml to 10 mg/ml, 18 hours

lipopolysaccharide [LPS]
Resistance to Fas-mediated killing with or without pre-exposure to LPS ([1]; cIAP2−/− macrophages): displayed no difference
Resistance to Fas-induced death after LPS pre-treatment ([1]; wild-type macrophages): showed the expected resistance to Fas-induced death
B cell proliferation in response to LPS (splenic B cells): proliferated normally
ciap2 mRNA upregulation above untreated controls ([2]; 100 ng/1 ml LPS, within 1 hour, maintained for 24 hours): > 20 fold
increase of ciap2 message above untreated controls ([2]; peritoneal-derived macrophages, in less than one hour): 2o
Xiap and ciap1 message levels [2, 4]: remained relatively unchanged
ciap2 mRNA level increase above untreated controls [2, 4]: up to 30 fold
Survival ([3]; all littermate controls, LPS dose of 60 mg/kg and above): did not survive past the first day
Survival time ([3]; cIAP2−/− mice, LPS dose of 200 mg LPS/kg): 2 to 7 days
LD100 ([3]; cIAP2−/− mice): 100 mg LPS/kg
Time within which all died ([3]; control littermates, 40 mg LPS/kg): ≤ 24 h
LD100 ([3]; control littermates): 35 mg LPS/kg
LD100 of cIAP2−/− mice compared to that of control littermates ([3]; i.p. LPS): approximately 3 ×
